According to patent US8883963B2 (Cadila Healthcare Limited, priority 2007, dated 2014):
Starred links: 1 amine or outer side, 2 acyl side, 3 side chain; linkers in the order of their positions; H or OH if unused. Non-standard residues stand in square brackets, D forms with d. Residues, ends and D or L forms follow the SMILES beside them. ξ: configuration not given here. *: point of attachment. X9 = CCc1cc(OC)ccc1-c1ccc(CC(NC(=S)[C@H](CC(=O)O)N*)C(=S)NC(CCCc2ccccc2F)C(N)=O)cc1; X8 = CCc1cc(OC)ccc1-c1ccc(CC(NC(=S)[C@H](CC(=O)O)N*)C(=S)NC(CCCc2ccccc2)C(N)=O)cc1; ξNMeBip(2'-Et,4'-OMe) = CCc1cc(OC)ccc1-c1ccc(CC(NC)C(=O)O)cc1; X4 = CCc1cc(OC)ccc1-c1ccc(CC(CNC(CCCc2ccccc2F)C(N)=O)N*)cc1; X7 = CCc1cc(OC)ccc1-c1ccc(CC(CNC(CCCc2ccccc2)C(N)=O)N*)cc1; ξBip(2'-Et-4'-OMe) = CCc1cc(OC)ccc1-c1ccc(CC(N)C(=O)O)cc1; X6 = O=C(C(CCCc1ccc(Cl)cc1Cl)N[*:1])[*:2]; X11 = CN(C(CCCc1ccccc1)C(=O)[*:2])[*:1]; ξαMePhe(2-F) = CC(N)(Cc1ccccc1F)C(=O)O; NMeD = CN[C@@H](CC(=O)O)C(=O)O; aThr = C[C@H](O)[C@H](N)C(=O)O; Aib = CC(C)(N)C(=O)O; Moc = COC(=O)*

Biological target: T1, human glucagon receptor (Homo sapiens, UniProt P47871)
T1 construct: The full-length cDNA was cloned in pcDNA3.1 (Invitrogen); expressed in transfected cells
T1 sequence (P47871 26-477): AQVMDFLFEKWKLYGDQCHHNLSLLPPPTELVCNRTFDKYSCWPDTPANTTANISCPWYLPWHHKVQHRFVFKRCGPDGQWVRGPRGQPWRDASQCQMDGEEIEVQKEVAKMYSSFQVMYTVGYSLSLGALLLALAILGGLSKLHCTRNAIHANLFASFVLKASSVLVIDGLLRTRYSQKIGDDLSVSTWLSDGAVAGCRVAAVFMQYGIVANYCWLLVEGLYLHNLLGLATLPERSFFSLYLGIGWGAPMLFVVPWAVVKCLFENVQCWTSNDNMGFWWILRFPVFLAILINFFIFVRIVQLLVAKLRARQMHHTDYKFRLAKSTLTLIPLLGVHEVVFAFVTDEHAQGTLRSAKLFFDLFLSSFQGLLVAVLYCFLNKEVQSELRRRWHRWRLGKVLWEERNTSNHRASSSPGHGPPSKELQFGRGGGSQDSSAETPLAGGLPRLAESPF
Assay: In vitro human glucagon antagonist activity (inhibition of cAMP production) in CHO/human glucagon R cells
Format: cell-based
Settings: with saturated concentration of glucagon peptide
Method: The CHO-K1 cells (CRL 9618) were obtained from American Type Culture Collection (Rockville, Md.). CHO cells were grown in Ham's F12 medium containing L-Glutamine (2 mM), HEPES (25 mM), NaHCO3 (1.1 g/L) and supplemented with newborn Calf Serum (NBCS; 10%), Penicillin (50 U/ml (v/v)) and Streptomycin (50 ug/ml (v/v)). Cells were split every 3 days 1:8.
The full-length cDNA was cloned in pcDNA3.1 (Invitrogen). […] Clones expressing the receptor were generated by G418 (800 μg/ml active, Sigma) selection. The stable clones were thereafter maintained at 500 ug/ml (G418). The selected clone was used between passages 9-25 for cAMP assays.
The cells were trypsinized using 2 ml of TPVG (0.25% trypsin, 0.53 mM EDTA, 1.38-mM glucose). The trypsin was inactivated using Ham's F12 medium containing 10% NBCS and the cells were suspended in 2 ml of complete medium. […] The medium was aspirated off from the 12 well plate and the cells were washed once using Ham's F12 (plain). The cells were incubated at 37° C. with 500 ul of Ham's F12+1% BSA+0.125 mM RO-20 for 30 min. […] After the incubation, the medium was removed and cells were washed once with plain Ham's F12. Subsequently, the cells were lysed by adding 500 ul of ice cold 0.1 N HCl to each well and shaking for 30 minutes at 200 rpm. The cells were then scrapped, the lysate was collected in micro centrifuge tubes and centrifuged at 12000 rpm for 10 min to remove the debris. 300 ul of supernatant from each micro-centrifuge tube was then removed into a glass tube and dried under N2 for 30 min, for cAMP estimation. The total cAMP was estimated from the sample according to the manufacturer's protocol using Cyclic AMP immunoassay kit (R&D systems, Minneapolis. MN). The remaining supernatant is used to determine the protein concentration using micro BCA (Sigma). Data is calculated as percent of control (Vehicle: water) and expressed as Mean+SD.

CCc1cc(OC)ccc1-c1ccc(CC(NC(=S)[C@H](CC(=O)O)NC(=O)[C@H](CO)NC(=O)[C@@H](NC(=O)C(C)(Cc2ccccc2F)NC(=O)[C@@H](NC(=O)CNC(=O)[C@H](CCC(N)=O)NC(=O)C(C)(C)NC(=O)[C@@H](N)Cc2c[nH]cn2)[C@H](C)O)[C@H](C)O)C(=S)NC(CCCc2ccccc2)C(N)=O)cc1 (stereo partly drawn) [compound 177] (H-H[Aib]QG[aThr][ξαMePhe(2-F)][aThr]S-X8)
Human Glucagon receptor antagonistic activity shown as inhibition of cAMP production of Glucagon peptide (1 nM test compound): 0 pmol/ml/μg prt
Human Glucagon receptor antagonistic activity shown as inhibition of cAMP production of Glucagon peptide (10 nM test compound): 0 pmol/ml/μg prt
Human Glucagon receptor antagonistic activity shown as inhibition of cAMP production of Glucagon peptide (100 nM test compound): 0 pmol/ml/μg prt
Human Glucagon receptor antagonistic activity shown as inhibition of cAMP production of Glucagon peptide (1 μM test compound): 0 pmol/ml/μg prt
Human Glucagon receptor antagonistic activity shown as inhibition of cAMP production of Glucagon peptide (10 μM test compound): 0 pmol/ml/μg prt

CCc1cc(OC)ccc1-c1ccc(CC(CNC(CCCc2ccccc2)C(N)=O)NC(=O)[C@H](CC(=O)O)NC(=O)[C@H](CO)NC(=O)[C@@H](NC(=O)C(C)(Cc2ccccc2F)NC(=O)[C@@H](NC(=O)CNC(=O)[C@H](CCC(N)=O)NC(=O)C(C)(C)NC(=O)[C@@H](N)Cc2c[nH]cn2)[C@H](C)O)[C@H](C)O)cc1 (stereo partly drawn) [compound 189] (H-H[Aib]QG[aThr][ξαMePhe(2-F)][aThr]SD-X7)
Human Glucagon receptor antagonistic activity shown as inhibition of cAMP production of Glucagon peptide (1 nM test compound): 3 ± 0.12 pmol/ml/μg prt
Human Glucagon receptor antagonistic activity shown as inhibition of cAMP production of Glucagon peptide (10 nM test compound): 1 ± 0.12 pmol/ml/μg prt
Human Glucagon receptor antagonistic activity shown as inhibition of cAMP production of Glucagon peptide (100 nM test compound): 0 pmol/ml/μg prt
Human Glucagon receptor antagonistic activity shown as inhibition of cAMP production of Glucagon peptide (1 μM test compound): 0 pmol/ml/μg prt
Human Glucagon receptor antagonistic activity shown as inhibition of cAMP production of Glucagon peptide (10 μM test compound): 0 pmol/ml/μg prt

CCc1cc(OC)ccc1-c1ccc(CC(NC(=O)[C@H](CC(=O)O)NC(=O)[C@H](CO)NC(=O)[C@@H](NC(=O)[C@H](Cc2ccccc2)NC(=O)[C@@H](NC(=O)CNC(=O)[C@H](CCC(N)=O)NC(=O)[C@H](CO)NC(=O)[C@@H](N)Cc2c[nH]cn2)[C@@H](C)O)[C@@H](C)O)C(=O)NC(CCCc2ccccc2)C(N)=O)cc1 (single isomer, unassigned) [compound 5]
Human Glucagon receptor antagonistic activity shown as inhibition of cAMP production of Glucagon peptide (1 nM test compound): 6 ± 0.02 pmol/ml/μg prt
Human Glucagon receptor antagonistic activity shown as inhibition of cAMP production of Glucagon peptide (10 nM test compound): 5 ± 0.04 pmol/ml/μg prt
Human Glucagon receptor antagonistic activity shown as inhibition of cAMP production of Glucagon peptide (100 nM test compound): 3 ± 0.14 pmol/ml/μg prt
Human Glucagon receptor antagonistic activity shown as inhibition of cAMP production of Glucagon peptide (1 μM test compound): 0 pmol/ml/μg prt
Human Glucagon receptor antagonistic activity shown as inhibition of cAMP production of Glucagon peptide (10 μM test compound): 0 pmol/ml/μg prt

CCc1cc(OC)ccc1-c1ccc(CC(NC(=O)[C@H](CC(=O)O)NC(=O)[C@H](CO)NC(=O)[C@@H](NC(=O)[C@H](Cc2ccccc2)NC(=O)[C@@H](NC(=O)CNC(=O)[C@H](CCC(N)=O)NC(=O)C2(NC(=O)[C@@H](N)Cc3c[nH]cn3)CCCC2)[C@@H](C)O)[C@@H](C)O)C(=O)NC(CCCc2ccc(Cl)cc2C)C(N)=O)cc1 (single isomer, unassigned) [compound 28]
Human Glucagon receptor antagonistic activity shown as inhibition of cAMP production of Glucagon peptide (1 nM test compound): 14 ± 0.02 pmol/ml/μg prt
Human Glucagon receptor antagonistic activity shown as inhibition of cAMP production of Glucagon peptide (10 nM test compound): 11 ± 0.03 pmol/ml/μg prt
Human Glucagon receptor antagonistic activity shown as inhibition of cAMP production of Glucagon peptide (100 nM test compound): 7 ± 0.22 pmol/ml/μg prt
Human Glucagon receptor antagonistic activity shown as inhibition of cAMP production of Glucagon peptide (1 μM test compound): 3 ± 0.12 pmol/ml/μg prt
Human Glucagon receptor antagonistic activity shown as inhibition of cAMP production of Glucagon peptide (10 μM test compound): 0 pmol/ml/μg prt

CCc1cc(OC)ccc1-c1ccc(CC(NC(=S)[C@H](CC(=O)O)NC(=O)[C@H](CO)NC(=O)[C@@H](NC(=O)C(C)(Cc2ccccc2F)NC(=O)[C@@H](NC(=O)CNC(=O)[C@H](CCC(N)=O)NC(=O)C(C)(C)NC(=O)[C@H](Cc2c[nH]cn2)NC(=O)OC)[C@@H](C)O)[C@@H](C)O)C(=S)NC(CCCc2ccccc2F)C(N)=O)cc1 (stereo partly drawn) [compound 172] (Moc-H[Aib]QGT[ξαMePhe(2-F)]TS-X9)
Human Glucagon receptor antagonistic activity shown as inhibition of cAMP production of Glucagon peptide (1 nM test compound): 4 ± 0.16 pmol/ml/μg prt
Human Glucagon receptor antagonistic activity shown as inhibition of cAMP production of Glucagon peptide (10 nM test compound): 2 ± 0.11 pmol/ml/μg prt
Human Glucagon receptor antagonistic activity shown as inhibition of cAMP production of Glucagon peptide (100 nM test compound): 0 pmol/ml/μg prt
Human Glucagon receptor antagonistic activity shown as inhibition of cAMP production of Glucagon peptide (1 μM test compound): 0 pmol/ml/μg prt
Human Glucagon receptor antagonistic activity shown as inhibition of cAMP production of Glucagon peptide (10 μM test compound): 0 pmol/ml/μg prt

CCc1cc(OC)ccc1-c1ccc(CC(CNC(CCCc2ccccc2F)C(N)=O)NC[C@H](CC(=O)O)NC(=O)[C@H](CO)NC(=O)[C@@H](NC(=O)C(C)(Cc2ccccc2F)NC(=O)[C@@H](NC(=O)CNC(=O)[C@H](CCC(N)=O)NC(=O)C(C)(C)NC(=O)[C@H](Cc2c[nH]cn2)NC(C)=O)[C@H](C)O)[C@H](C)O)cc1 (single isomer, unassigned) [compound 199]
Human Glucagon receptor antagonistic activity shown as inhibition of cAMP production of Glucagon peptide (1 nM test compound): 4 ± 0.06 pmol/ml/μg prt
Human Glucagon receptor antagonistic activity shown as inhibition of cAMP production of Glucagon peptide (10 nM test compound): 3 ± 0.11 pmol/ml/μg prt
Human Glucagon receptor antagonistic activity shown as inhibition of cAMP production of Glucagon peptide (100 nM test compound): 0 pmol/ml/μg prt
Human Glucagon receptor antagonistic activity shown as inhibition of cAMP production of Glucagon peptide (1 μM test compound): 0 pmol/ml/μg prt
Human Glucagon receptor antagonistic activity shown as inhibition of cAMP production of Glucagon peptide (10 μM test compound): 0 pmol/ml/μg prt

CCc1cc(OC)ccc1-c1ccc(CC(C(=O)N(C)C(CCCc2ccccc2)C(N)=O)N(C)C(=O)[C@H](CC(=O)O)N(C)C(=O)[C@H](CO)NC(=O)[C@@H](NC(=O)C(C)(Cc2ccccc2F)NC(=O)[C@@H](NC(=O)CNC(=O)[C@H](CCC(N)=O)NC(=O)C(C)(C)NC(=O)[C@H](Cc2c[nH]cn2)NC(=O)OC)[C@H](C)O)[C@H](C)O)cc1 (stereo partly drawn) [compound 150] (Moc-H[Aib]QG[aThr][ξαMePhe(2-F)][aThr]S[NMeD][ξNMeBip(2'-Et,4'-OMe)][X11]-NH2)
Human Glucagon receptor antagonistic activity shown as inhibition of cAMP production of Glucagon peptide (1 nM test compound): 10 ± 0.12 pmol/ml/μg prt
Human Glucagon receptor antagonistic activity shown as inhibition of cAMP production of Glucagon peptide (10 nM test compound): 8 ± 0.02 pmol/ml/μg prt
Human Glucagon receptor antagonistic activity shown as inhibition of cAMP production of Glucagon peptide (100 nM test compound): 6 ± 0.04 pmol/ml/μg prt
Human Glucagon receptor antagonistic activity shown as inhibition of cAMP production of Glucagon peptide (1 μM test compound): 4 ± 0.05 pmol/ml/μg prt
Human Glucagon receptor antagonistic activity shown as inhibition of cAMP production of Glucagon peptide (10 μM test compound): 1 ± 0.02 pmol/ml/μg prt

CCc1cc(OC)ccc1-c1ccc(CC(NC(=O)[C@H](CC(=O)O)NC(=O)[C@H](CO)NC(=O)[C@@H](NC(=O)[C@H](Cc2ccccc2)NC(=O)[C@@H](NC(=O)CNC(=O)[C@H](CCC(N)=O)NC(=O)[C@H](CO)NC(=O)[C@@H](N)Cc2c[nH]cn2)[C@@H](C)O)[C@@H](C)O)C(=O)NC(CCCc2ccc(Cl)cc2Cl)C(N)=O)cc1 (stereo partly drawn) [compound 51] (H-HSQGTFTSD[ξBip(2'-Et-4'-OMe)][X6]-NH2)
Human Glucagon receptor antagonistic activity shown as inhibition of cAMP production of Glucagon peptide (1 nM test compound): 5 ± 0.09 pmol/ml/μg prt
Human Glucagon receptor antagonistic activity shown as inhibition of cAMP production of Glucagon peptide (10 nM test compound): 3 ± 0.11 pmol/ml/μg prt
Human Glucagon receptor antagonistic activity shown as inhibition of cAMP production of Glucagon peptide (100 nM test compound): 0 pmol/ml/μg prt
Human Glucagon receptor antagonistic activity shown as inhibition of cAMP production of Glucagon peptide (1 μM test compound): 0 pmol/ml/μg prt
Human Glucagon receptor antagonistic activity shown as inhibition of cAMP production of Glucagon peptide (10 μM test compound): 0 pmol/ml/μg prt

CCc1cc(OC)ccc1-c1ccc(CC(CNC(CCCc2ccccc2F)C(N)=O)NC(=O)[C@H](CC(=O)O)NC(=O)[C@H](CO)NC(=O)[C@@H](NC(=O)C(C)(Cc2ccccc2F)NC(=O)[C@@H](NC(=O)CNC(=O)[C@H](CCC(N)=O)NC(=O)C(C)(C)NC(=O)[C@@H](N)Cc2c[nH]cn2)[C@H](C)O)[C@H](C)O)cc1 (stereo partly drawn) [compound 191] (H-H[Aib]QG[aThr][ξαMePhe(2-F)][aThr]SD-X4)
Human Glucagon receptor antagonistic activity shown as inhibition of cAMP production of Glucagon peptide (1 nM test compound): 4 ± 0.05 pmol/ml/μg prt
Human Glucagon receptor antagonistic activity shown as inhibition of cAMP production of Glucagon peptide (10 nM test compound): 2 ± 0.13 pmol/ml/μg prt
Human Glucagon receptor antagonistic activity shown as inhibition of cAMP production of Glucagon peptide (100 nM test compound): 2 ± 0.12 pmol/ml/μg prt
Human Glucagon receptor antagonistic activity shown as inhibition of cAMP production of Glucagon peptide (1 μM test compound): 0 pmol/ml/μg prt
Human Glucagon receptor antagonistic activity shown as inhibition of cAMP production of Glucagon peptide (10 μM test compound): 0 pmol/ml/μg prt
